From ChEMBL document CHEMBL3286363, “Benzo[d]isothiazole 1,1-dioxide derivatives as dual functional inhibitors of 5-lipoxygenase and microsomal prostaglandin E(2) synthase-1” (Bioorg Med Chem Lett, 2014)

Experiments:
[1] = biological target: T1, Polyunsaturated fatty acid 5-lipoxygenase (Homo sapiens, UniProt P09917); experiment: Inhibition of human 5-LOX using arachidonic acid as substrate measured as H2DCFDA conversion to 2',7'-dichlorofluorescein preincubated for 10 mins by fluorescence spectrophotometric analysis
T1 sequence (P09917 whole entry): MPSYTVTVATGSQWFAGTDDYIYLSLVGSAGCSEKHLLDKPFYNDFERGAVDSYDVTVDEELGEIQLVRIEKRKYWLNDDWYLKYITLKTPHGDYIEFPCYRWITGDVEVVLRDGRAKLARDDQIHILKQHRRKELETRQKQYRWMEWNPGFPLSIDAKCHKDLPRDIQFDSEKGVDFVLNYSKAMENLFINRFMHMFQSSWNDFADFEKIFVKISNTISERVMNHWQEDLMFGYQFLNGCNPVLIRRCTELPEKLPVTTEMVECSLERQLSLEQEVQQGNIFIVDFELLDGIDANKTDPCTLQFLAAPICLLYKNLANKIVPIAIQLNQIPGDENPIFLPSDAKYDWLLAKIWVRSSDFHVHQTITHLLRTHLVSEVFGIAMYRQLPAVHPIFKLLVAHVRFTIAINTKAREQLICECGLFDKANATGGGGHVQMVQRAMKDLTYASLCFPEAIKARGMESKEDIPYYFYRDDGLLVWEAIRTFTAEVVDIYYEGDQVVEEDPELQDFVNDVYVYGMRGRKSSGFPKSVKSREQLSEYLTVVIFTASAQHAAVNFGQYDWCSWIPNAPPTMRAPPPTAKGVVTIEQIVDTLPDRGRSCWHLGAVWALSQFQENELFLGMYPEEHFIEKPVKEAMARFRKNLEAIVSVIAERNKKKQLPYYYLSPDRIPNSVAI

Prostaglandin E synthase = biological target: T2, Prostaglandin E synthase (Homo sapiens, UniProt O14684); experiment: Inhibition of microsomal PGES-1 (unknown origin) assessed as PGH2 conversion to PGE2 after 1 min by enzyme immunoassay
T2 sequence (O14684 whole entry): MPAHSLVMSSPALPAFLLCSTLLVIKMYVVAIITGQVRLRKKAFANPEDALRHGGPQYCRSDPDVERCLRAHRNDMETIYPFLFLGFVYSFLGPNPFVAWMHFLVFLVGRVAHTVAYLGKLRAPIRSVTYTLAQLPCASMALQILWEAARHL

SMILES | IC50 [1] [µM] | IC50 (Prostaglandin E synthase) [µM]
O=[N+]([O-])c1ccc2c(c1)S(=O)(=O)N=C2Nc1ccccc1 | 8.6 | 23.6
O=[N+]([O-])c1ccc2c(c1)S(=O)(=O)N=C2Nc1cccc(Cl)c1 | > 50 | 5.7
O=[N+]([O-])c1ccc2c(c1)S(=O)(=O)N=C2Nc1cccc(Br)c1 | 3.4 | 7.3
COc1ccc(NC2=NS(=O)(=O)c3cc([N+](=O)[O-])ccc32)cc1 | 12.3 | 16.9
COc1ccc(NC2=NS(=O)(=O)c3cc([N+](=O)[O-])ccc32)cc1OC | 23.5 | > 50
O=[N+]([O-])c1ccc2c(c1)S(=O)(=O)N=C2NCc1cccc(Br)c1 | > 50 | > 50
O=[N+]([O-])c1ccc2c(c1)S(=O)(=O)N=C2Nc1cccc2ccccc12 | 0.6 | 2.1
Cc1ccccc1NC1=NS(=O)(=O)c2cc([N+](=O)[O-])ccc21 | > 50 | > 50
CC(C)c1cccc(NC2=NS(=O)(=O)c3cc([N+](=O)[O-])ccc32)c1 | 0.25 | > 50
CC(C)(C)c1cccc(NC2=NS(=O)(=O)c3cc([N+](=O)[O-])ccc32)c1 | 0.06 | > 50
COc1cccc(NC2=NS(=O)(=O)c3cc([N+](=O)[O-])ccc32)c1 | 0.24 | 8.8
O=[N+]([O-])c1ccc2c(c1)S(=O)(=O)N=C2Nc1cccc(-c2ccccc2)c1 | 0.7 | > 50
O=[N+]([O-])c1ccc2c(c1)S(=O)(=O)N=C2Nc1cccc2ncccc12 | > 50 | 0.15
O=[N+]([O-])c1ccc2c(c1)S(=O)(=O)N=C2Nc1cccc2c(Br)cccc12 | > 50 | > 50
O=[N+]([O-])c1ccc2c(c1)S(=O)(=O)N=C2Nc1cccc2c1OCO2 | 14.9 | > 50
